We go through 2 compounds from paper PMC10056636, “3-Amino-Substituted Analogues of Fusidic Acid as Membrane-Active Antibacterial Compounds” (Membranes, 2023).

By MIC is commonly meant the lowest concentration found to suppress growth. In general, CC50 refers to the concentration at which the toxic effect on the cells reaches its halfway point. Lower therefore signals greater toxicity to the cells.

Data set [1] has as its system Candida albicans (ATCC 90028). The data set is described as follows: Antifungal growth inhibition (MIC, CO-ADD). The format is cell-based. To be noted: C. albicans, inhibition ≥80%, two replicates per cell.
For data set [2], the system named is Pseudomonas aeruginosa (ATCC 27853). The data set is described as follows: Antibacterial whole-cell growth inhibition (MIC, CO-ADD). The format is cell-based. The conditions noted are these: P. aeruginosa, two replicates per cell.
Data set [3] deals with Escherichia coli (ATCC 25922). The description is as above. The data set is classed as cell-based. To be noted: E. coli, two replicates per cell.
The test system of data set [4] is Staphylococcus aureus (ATCC 43300) (MRSA). The data set is described as above. The data set is classed as cell-based. The conditions noted are these: S. aureus (MRSA) ATCC 43300, inhibition ≥80%, two replicates (n = 2).
In data set [5] the test system is Acinetobacter baumannii (ATCC 19606). Described as above. The format is cell-based. To be noted: A. baumannii, two replicates per cell.
The next data set in a line: in vitro. The data set is classed as cell-based, human. To be noted: human, CC50.
The test system of data set [6] is human embryonic kidney cell line HEK293 (ATCC CRL-1573). The data set is described as follows: in vitro. The format is cell-based. The conditions noted are these: human, 20 h.
The nature of data set [7]: Ion permeability and rupture of planar lipid bilayers. The conditions noted are these: for concentration up to which addition did not increase the ion permeability of the lipid bilayers: DPhPC uncharged membranes; for Cbr (threshold concentration required to rupture the bilayer): DPhPC, 0.1 M KCl, pH 7.4, 100 mV. How it is done: Synthetic 1,2-diphytanoyl-sn-glycero-3-phosphocholine (DPhPC) and 1,2-diphytanoyl-sn-glycero-3-phospho-(1′-rac-glycerol) (DPhPG) were purchased from Avanti® Polar Lipids (Avanti Polar Lipids, Inc., Alabaster, AL, USA). A KCl solution (0.1 M) was buffered with 5 mM HEPES, pH 7.4. Bilayer lipid membranes were prepared from DPhPC or DPhPG using a monolayer-opposition technique on a 50 µm-diameter aperture in a 10 µm-thick Teflon film separating the cis- and trans-compartments of the Teflon chamber. Experiments were performed in chambers containing 0.1 M KCl, 5 mM Hepes-KOH, pH 7.4.
The test compounds (4, 20, 22) were added to the cis-chamber as 10 mg/mL solutions in ethanol (to mimic the physiologically relevant conditions) up to the final concentrations and the effects of the compounds on the ion permeability of the model lipid membranes were studied. Ag/AgCl electrodes with 1.5% agarose/2 M KCl bridges were used to apply the transmembrane voltage (V) and measure the transmembrane current (I). ‘Positive voltage’ refers to the case in which the cis-side compartment is positive with respect to the trans-side. All experiments were performed at room temperature.
The current was measured using an Axopatch 200B amplifier (Molecular Devices, LLC, Orlean, CA, USA) in voltage clamp mode. Data were digitized using a Digidata 1440A and analyzed using pClamp 10.0 (Molecular Devices, LLC, Orlean, CA, USA) and Origin 8.0 (OriginLab Corporation, Northampton, MA, USA). The data were acquired at a sampling frequency of 5 kHz using low-pass filtering at 200 Hz.
The threshold concentrations (Cbr) of the derivatives required to rupture the bilayers composed of DPhPC or DPhPG at a transmembrane voltage of 100 mV were determined. Cbr-values were averaged from 3 to 4 bilayers and presented as mean ± standard error (p ≤ 0.05).

Data set [8] deals with Cryptococcus neoformans (ATCC 208821). Put plainly: Antifungal growth inhibition (MIC, CO-ADD). To be noted: inhibition ≥70%, two replicates per cell.
Method: Antimicrobial, cytotoxicity, and hemolytic activity screening of the synthesized derivatives was carried out in the CO-ADD (The Community for Antimicrobial Drug Discovery) (http://www.co-add.org, accessed on 24 November 2020) and included analysis for antibacterial properties, cytotoxicity, and hemolytic activity.
The hit confirmation test included five bacteria, Escherichia coli (ATCC 25922), Klebsiella pneumoniae (ATCC 700603), Acinetobacter baumannii (ATCC 19606), Pseudomonas aeruginosa (ATCC 27853), and Staphylococcus aureus (ATCC 43300), and two fungi, Candida albicans (ATCC 90028) and Cryptococcus neoformans (ATCC 208821). […] The compounds were also screened for hemolysis of human red blood cells (human whole blood, strain ARCBS 5400 00150).
Samples were prepared in DMSO and water to a final testing concentration of 32 µg/mL or 20 µM (unless otherwise indicated in the data sheet) and serially diluted twofold up to 8 times. Each sample concentration was prepared in 384-well plates: non-binding surface plate (NBS; Corning 3640) for each bacterial/fungal strain, tissue-culture treated (TC-treated; Corning 3712/3764) black for mammalian cell types and polypropylene 384-well plates (PP; Corning 3657) for hemolysis assays. The final DMSO concentration was maintained to a maximum of 0.5%. All sample preparation procedures were performed using liquid-handling robots. All screening was performed as two replica (n = 2), with both replicas on different assay plates, but from single plating and performed in a single screening experiment (microbial incubation). In addition, two values are used as quality controls for individual plates: Z′-Factor [1 − (3* (sd(NegCtrl) + sd(PosCtrl))/(average(PosCtrl)-average(NegCtrl)))] and standard antibiotic controls at different concentrations (>MIC and <MIC).
Fungi strains were cultured for 3 days on yeast extract-peptone dextrose (YPD) agar at 30 °C. A yeast suspension of 1 × 10^6 to 5 × 10^6 CFU/mL (as determined by OD530) was prepared from five colonies. The suspension was subsequently diluted and added to each well containing a test compound, giving a final cell density of fungi suspension of 2.5 × 10^3 CFU/mL and a total volume of 50 µL. All plates were covered and incubated at 35 °C for 36 h without shaking.
The absorbance was measured using a Biotek Multiflo Synergy HTX plate reader. In both cases, the percentage of growth inhibition was calculated for each well, using the negative control (media only) and positive control (fungi without inhibitors) in the same plate. […] In addition, the maximal percentage of growth inhibition is reported as DMax, indicating any compounds with marginal activity.
Fluconazole was used as a positive fungal inhibitor standard for C. albicans and C. neoformans. […] The quality control (QC) of the assays was performed using Z′-factors calculated from the negative (media only) and positive controls (bacterial, fungal, or cell culture without inhibitor) and the standards.
Setting [9] is: Candida albicans, ATCC90028, read-out: MIC.
[10] abbreviates: Pseudomonas aeruginosa, ATCC27853, read-out: MIC.
Setting [11] is: Escherichia coli, ATCC25922, read-out: MIC.
Setting [12] is: Acinetobacter baumannii, ATCC19606, read-out: MIC.

SMILES strings stand for the structures. Values after ≈ are worked out from the molar mass of the structure shown. Values joined by “and” are separate entries in the source; they are usually repeats but may differ in a detail not shown here. Equal values may be shown once. Read-outs that look alike come from different tables or passages of the source.

`COC(=O)/C(CCC=C(C)C)=C1\[C@@H](OC(C)=O)C[C@@]2(C)[C@@H]1C[C@@H](O)[C@@H]1[C@@]3(C)CC[C@H](NCCCNCCCCN)[C@@H](C)C3CC[C@@]12C` (stereo partly drawn) [Compound 20, Methyl (2Z)-2-[(3β,4α,8α,11α,14β,16β)-16-(acetyloxy)-3-({3-[(4aminobutyl)amino]propyl}amino)-11-hydroxy-4,8,10,14-tetramethylgonan-17-ylidene]-6-methylhept-5-enoate]: the minimal inhibitory concentration (MIC) in [1] is 32 µg/mL (≈ 48.6 µM); in data set [1] (setting [9]) it was 32 µg/mL (≈ 48.6 µM); in data set [2], >32 >32 µg/mL; in [2] (setting [10]), above 32 µg/mL; in [3], 32 µg/mL (≈ 48.6 µM); in data set [3] (setting [11]), 32 µg/mL (≈ 48.6 µM). In addition, the MIC in data set [4] is 4.0 µg/mL and 8.0 µg/mL; in data set [5], 32 µg/mL (≈ 48.6 µM); in data set [5] (setting [12]) it was 32 µg/mL (≈ 48.6 µM). For the same compound, the CC50 at 20 h in the data set “in vitro” was 15.4 µg/mL (≈ 23.4 µM). Besides, the CC50 in data set [6] was 14.9 µg/mL (≈ 22.6 µM). In addition, in data set [7], the “concentration up to which addition did not increase the ion permeability of the lipid bilayers” value is at most 275 µg/mL. In addition, the “Cbr (threshold concentration required to rupture the bilayer)” value in data set [7] is 275 ± 25 µg/mL.

Turning to `COC(=O)/C(CCC=C(C)C)=C1\[C@@H](OC(C)=O)C[C@@]2(C)[C@@H]1C[C@@H](O)[C@@H]1[C@@]3(C)CC[C@H](NCCCNCCCCNCCCN)[C@@H](C)C3CC[C@@]12C` (stereo partly drawn) [Compound 22, Methyl (2Z)-2-[(3β,4α,8α,11α,14β,16β)-16-(acetyloxy)-3-{[3-({4-[(3-aminopropyl)amino]butyl}amino)propyl]amino}-11-hydroxy-4,8,10,14-tetramethylgonan-17-ylidene]-6-methylhept-5-enoate], the MIC in data set [1], in data set [1] (setting [9]), in [2], in data set [2] (setting [10]), in [3] and in data set [3] (setting [11]) was 32 µg/mL (≈ 44.8 µM) each time. The MIC in data set [4] (Staphylococcus aureus, read-out: MIC) is 2 µg/mL (≈ 2.8 µM); in data set [5] it was 32 µg/mL (≈ 44.8 µM); in [5] (setting [12]) it was 32 µg/mL (≈ 44.8 µM); in data set [8] (C. neoformans) it was 1.0 µg/mL and 2.0 µg/mL; in data set [8] (Cryptococcus neoformans, ATCC208821, C. neoformans) it was 1 µg/mL (≈ 1.4 µM). The CC50 at 20 h in the data set “in vitro” stood at 18.8 µg/mL (≈ 26.3 µM). This compound displayed a CC50 in data set [6] of 18.1 µg/mL (≈ 25.3 µM). In addition, the “concentration up to which addition did not increase the ion permeability of the lipid bilayers” value in data set [7] was at most 250 µg/mL. The “Cbr (threshold concentration required to rupture the bilayer)” value in data set [7] was determined as 250 ± 11 µg/mL.
